We go through two compounds from patent publication US11103588B2, “Methods and compositions relating to carnitine-derived materials” (Wayne State University, priority 2017, dated 2021).

Where a name gives a salt, the structure may show the parent alone. Read-outs that look alike come from different tables or passages of the source.

For this data set the following is noted: for Solubility in ACN / Solubility in CHCl3 / Solubility in EA: 80 mg/ml. The text has this:
It is critical to select the right solvent for the one-step reaction to obtain L-carnitineMA monomer. Acryloyl chloride has to be dissolved in a non-protic solvent to preserve its reactivity.

On to `C[N+](C)(C)C[C@H](O)CC(=O)[O-].Cl` [L-carnitine hydrochloride], for which, where the note is “40° C.”, the “Solubility in ACN” value is recorded as “No (No: not soluble)” and the “Solubility in EA” value is on record as “No (No: not soluble)”. Under “80° C.”, the “Solubility in ACN” value is on record as “No (No: not soluble)”, the “Solubility in EA” value is listed as “No (No: not soluble)” and the “Solubility in DMF (in words)” value was “partially dissolved”. The “Solubility in CHCl3” value (CHCl3, 40° C.) is listed as “No (No: not soluble)”. Further, the “Solubility in CHCl3” value (CHCl3, 80° C.) is given as “No (No: not soluble)”.

Take `C[N+](C)(C)C[C@H](O)CC(=O)[O-]` [L-carnitine inner-salt]: the “Solubility in ACN” value is “No (No: not soluble)” (40° C.) and “No (No: not soluble)” (80° C.). The “Solubility in CHCl3” value was “No (No: not soluble)” (CHCl3, 40° C.) and “No (No: not soluble)” (CHCl3, 80° C.). The “Solubility in EA” value is “No (No: not soluble)” (40° C.) and “No (No: not soluble)” (80° C.). In addition, the “Solubility in DMF (in words)” value (80° C.) is recorded as “totally insoluble”.
